One data set has as its system mice. Kind of data set: Toxicity: death on intraperitoneal administration to mice for 5 weeks. As to conditions: 10 mg/kg per day intraperitoneally for 5 weeks. The class given is in vivo. The source says: Further, the compounds of the present invention are low in toxicity, and these compounds are expected to be high in safety.
The test system of data set [1] is TNF-α production by LPS stimulated macrophages. Kind of data set: TNF-α production inhibitory activity by LPS stimulated macrophages. The format is cell-based. As to conditions: Macrophage, BALB/c mouse peritoneal macrophages, cultured for 8 hours, ELISA. The procedure:
The following assay was used to evaluate the ability of the compound of the present invention to suppress TNF-α production by LPS stimulated macrophages according to Immunopharmacol. 29, 121-127 (1995).
1) 6 to 10 week old female BALB/c mice were used, 2 ml portions of thioglycolate were intraperitoneally administered, and the abdominal cavities were washed by 10 ml of PBS after 4 days, whereby 1 to 2×10^7 peritoneal cells were obtained per mouse. These were suspended in a hemocyte solution (0.75% ammonium chloride, 17 mM tris-hydrochlorate buffer, pH7.2), centrifuged, then resuspended in an RPMI1640 medium including 10% fetal calf serum and seeded in a 96-well cell culture plate at a density of 1×10^5 cells/50 μl/well. Since these cells adhered strongly to the tissue culture plate and were positive in nonspecific esterase staining, they were used for the test as mouse peritoneal macrophages. Mouse peritoneal macrophages were precultured overnight at 37° C. in […] for the experiment.
2) E. Coli (serum type 055:B5) derived LPS was dissolved in PBS in a concentration of 1 mg/ml, then sterilized by filtration. The test compound was dissolved in DMSO to make a 1000-fold concentration solution of the final concentration of use. 10 μl of the above LPS stock solution (final concentration 10 μg/ml) and 1 μl of the tested substance stock solution were added and mixed in 0.5 ml of RPMI1640 medium containing 10% fetal calf serum. This was added to the above cells at 50 μl/well and cultured for 8 hours. The cultured supernatant was recovered from each well and the TNF-α concentration was measured by the ELISA method (Cytoscreen® Immunoassay Kit Mouse TNF-α, BioSourse International).
The comparative example was the compound described in WO-A-97-04775, Example 1, mentioned above.
(In general: In an ELISA, binding on a coated surface is turned into a signal by an enzyme label.)

Data set [2] deals with type IV phosphodiesterase. Kind of data set: Type IV phosphodiesterase inhibiting activity. The class given is biochemical, human. Conditions: U937 type IV phosphodiesterase fraction, 0.28 μM cAMP, pH 7.5, 30° C., 30 minutes; read-out: PDEIV-IC50. The procedure: The following assay was used to evaluate the ability of the compound of the present invention to suppress type IV phosphodiesterase, according to Biochemical. Pharmacol. 48 (6), 1219-1223 (1994).
1) Type IV phosphodiesterase activity fractions were prepared as follows. Namely, human histiocytic lymphoma cell line U937 was cultured in an RPMI1640 medium containing 10% fetal calf serum to obtain 10^9 cells of U937. The cells were recovered by centrifugation and suspended in 40 ml of buffer A (20 mM bis-tris, 5 mM 2-mercaptoethanol, 2 mM benzamidine, 2 mM EDTA, 0.1 mM 4-(2-aminoethyl)benzensulfonyl hydrochloride, 50 mM sodium acetate, pH=6.5). The cells were broken by a sonication and centrifuged (4° C., 10,000 G, 10 minutes) to obtain a supernatant. This was filtered by a 0.45 μm filter to obtain the soluble fraction.
2) The soluble fraction obtained was applied into a 1×10 cm DEAE Sepharose column equalibrated with the buffer A. 120 ml of the buffer A containing a linear gradient solution of 0.05 to 1M sodium acetate was used to separate the phosphodiesterase and recover 24 5-ml fractions. Each of the fractions was measured for the cAMP phosphodiesterase activity.
3) The test compound was reacted at a desired concentration in a reaction mixture containing 20 mM tris-HCl (pH 7.5), 1 mM MgCl2, 100 μM EDTA, 330 μg/ml calf serum albumin, 10 μg/ml 5'-nucleotidase, 0.4 μCi ^3 H-cAMP (0.28 μM cAMP) and the type IV phosphodiesterase stored solution at 30° C. for 30 minutes. QAE-Sephadex suspended in 10 mM of hepes-Na (pH -7.0) was added to the reaction mixture which was then allowed to stand for 5 minutes, then the supernatant was obtained, QAE-Sephadex was further added, to the supernatant, and was allowed to stand for 5 minutes, then the supernatant was obtained and measured for radioactivity.

The values below come from US6331548A, “1-cycloalkyl-1,8-naphthyridin-4-one derivative as type IV phosphodiesterase inhibitor” (Suntory Limited, priority 1998, dated 2001).

SMILES strings stand for the structures.

As to `O=C(Nc1c(Cl)cncc1Cl)c1cn([C@H]2CCN(C(=O)OCc3ccccc3)C2)c2ncccc2c1=O` [Example 10, (S)-N-(3,5-dichloropyridin-4-yl)-1-(1-benzyloxycarbonylpyrrolidin-3-yl)-1,4-dihydro[1,8]naphthyridin-4-one-3-carboxamide], the death entry in the data set on mice is reported as “no death”. The IC50 (in general, the concentration at which inhibition is half-maximal) worked out at 10 nM in data set [1] and 1.5 nM in data set [2].
Turning to `O=C(Nc1ccncc1)c1cn(C2CC2)c2ncccc2c1=O` [Example 139, N-(4-pyridyl)-1-cyclopropyl-1,4-dihydro[1,8]naphthylidin-4-one-3-carboxamide], the death entry in the data set on mice is reported as “no death”. Moreover, the IC50 is 370 nM in data set [1] and 240 nM in data set [2].
For `O=C(Nc1c(Cl)cncc1Cl)c1cn([C@H]2CC[C@@H](O)CC2)c2ncccc2c1=O` [Example 119, N-(3,5-dichloropyridin-4-yl)-1-(cis-4-hydroxycyclohexyl)-1,4-dihydro[1,8]naphthylidin-4-one-3-carboxamide], the concentration for half-maximal inhibition (IC50) stood at 0.04 nM in data set [1] and 1 nM in data set [2].
With `O=C(Nc1c(Cl)cncc1Cl)c1cn(C2CCN(Cc3ccccc3)CC2)c2ncccc2c1=O` [Example 46, N-(3,5-dichloropyridin-4-yl)-1-(benzylpiperidin-4-yl)-1,4-dihydro[1,8]naphthylidin-4-one-3-carboxamide], the IC50 in data set [1] was 500 nM; in data set [2], 13 nM.
Turning to `O=C(Nc1ccncc1)c1cn(C2CCSCC2)c2ncccc2c1=O` [Example 100, N-(4-pyridyl)-1-(4-tetrahydrothiopyranyl)-1,4-dihydro[1,8]naphthylidin-4-one-3-carboxamide], the results for the IC50 in data set [1] and in data set [2] were 70 nM and 43 nM, respectively.
With `CC(=O)N1CCC(n2cc(C(=O)Nc3c(Cl)cncc3Cl)c(=O)c3cccnc32)CC1` [Example 28, N-(3,5-dichloropyridin-4-yl)-1-(1-acetylpiperidin-4-yl)-1,4-dihydro[1,8]naphthylidin-4-one-3-carboxamide], the values for the IC50 in data set [1] and in data set [2] were 100 nM and 7.8 nM, respectively.
The like results for `CNC(=S)N1CC[C@H](n2cc(C(=O)Nc3c(Cl)cncc3Cl)c(=O)c3cccnc32)C1` [Example 19, (S)-N-(3,5-dichloropyridin-4-yl)-1-(1-methylaminothiocarbonylpyrrolidin-3-yl)-1,4-dihydro[1,8]naphthylidin-4-one-3-carboxamide] were, in that order, 7 nM and 6.3 nM.
With `O=C(Nc1c(Cl)cncc1Cl)c1cn(C2CC2)c2ncccc2c1=O` [Example 140, N-(3,5-dichloropyridin-4-yl)-1-cyclopropyl-1,4-dihydro[1,8]naphthylidin-4-one-3-carboxamide], the IC50 in data set [1] was determined as 10 nM; in data set [2], 2.5 nM.
Take `O=C(Nc1ccncc1)c1cn([C@H]2CC[C@H](O)CC2)c2ncccc2c1=O` [Example 113, N-(4-pyridyl)-1-(trans-4-hydroxycyclohexyl)-1,4-dihydro[1,8]naphthylidin-4-one-3-carboxamide]: the IC50 in data set [1] was found to be 300 nM; in data set [2] it was 400 nM.
Take `O=C(O)CN1CCC(n2cc(C(=O)Nc3c(Cl)cncc3Cl)c(=O)c3cccnc32)CC1` [Example 50]: the IC50 was 7000 nM in data set [1] and 100 nM in data set [2].
In the case of `O=C(Nc1ccncc1Cl)c1cn([C@H]2CC[C@H](O)CC2)c2ncccc2c1=O` [Example 122, N-(3-chloropyridin-4-yl)-1-(trans-4-hydroxycyclohexyl)-1,4-dihydro[1,8]naphthylidin-4-one-3-carboxamide], the IC50 in data set [1] was determined as 1200 nM; in data set [2] it was 200 nM.
Regarding `COC(=O)N1CC[C@H](n2cc(C(=O)Nc3c(Cl)cccc3Cl)c(=O)c3cccnc32)C1` [Example 9, (S)-N-(2,6-dichlorophenyl)-1-(1-methoxycarbonylpyrrolidin-3-yl)-1,4-dihydro[1,8]naphthyridin-4-one-3-carboxamide], the figures for the IC50 in data set [1] and in data set [2] were 100 nM and 23 nM, respectively.
In the case of `CN1CCN(n2cc(C(=O)Nc3c(Cl)cncc3Cl)c(=O)c3cccnc32)CC1` [Example 55, N-(3,5-dichloropyridin-4-yl)-1-(4-methylpiperazine-1-yl)-1,4-dihydro[1,8]naphthylidin-4-one-3-carboxamide], the IC50 was determined as 10 nM in data set [1] and 6.7 nM in data set [2].
The corresponding values for `CO[C@H]1CC[C@H](n2cc(C(=O)Nc3ccncc3)c(=O)c3cccnc32)CC1` [Example 126, N-(4-pyridyl)-1-(trans-4-methoxycyclohexyl)-1,4-dihydro[1,8]naphthylidin-4-one-3-carboxamide] are 1800 nM and 720 nM.
As to `O=CN1CCC(n2cc(C(=O)Nc3c(Cl)cncc3Cl)c(=O)c3cccnc32)CC1` [Example 48, N-(3,5-dichloropyridin-4-yl)-1-(1-formylpiperidin-4-yl)-1,4-dihydro[1,8]naphthylidin-4-one-3-carboxamide], the IC50 in data set [1] was determined as 1500 nM; in data set [2], 4.8 nM.
Take `NC(=O)N1CC[C@H](n2cc(C(=O)Nc3c(Cl)cncc3Cl)c(=O)c3cccnc32)C1` [Example 20, (S)-N-(3,5-dichloropyridin-4-yl)-1-(1-aminocarbonylpyrrolidin-3-yl)-1,4-dihydro[1,8]naphthylidin-4-one-3-carboxamide]: the IC50 came out at 3000 nM in data set [1] and 12 nM in data set [2].
`O=C(CN1CCC(n2cc(C(=O)Nc3c(Cl)cncc3Cl)c(=O)c3cccnc32)CC1)OCc1ccccc1` [Example 49, benzyl 2-{4-[3-[(3,5-dichloropyridin-4-yl)amino]carbonyl-1,4-dihydro[1,8]naphthylidin-4-one-1-yl]piperidino}acetate]: the IC50 is 200 nM in data set [1] and 22 nM in data set [2].
For `O=C(Nc1c(Cl)cncc1Cl)c1cn([C@@H]2CCOC2)c2ncccc2c1=O` [Example 39, N-(3,5-dichloropyridin-4-yl)-1-[(R)-tetrahydro-3-furanyl]-1,4-dihydro[1,8]naphthylidin-4-one-3-carboxamide], the figures for the IC50 in data set [1] and in data set [2] were 5000 nM and 10 nM, respectively.
In the case of `O=C(Nc1c(Cl)cncc1Cl)c1cn([C@H]2C[C@H]3COC(=O)N3C2)c2ncccc2c1=O` [Example 86, N-(3,5-dichloropyridine-4-yl)-1-[(5S,7S)-1-aza-3-oxabicyclo[3,3,0]octan-2-one-7-yl]-1,4-dihydro[1,8]naphthylidin-4-one-3-carboxamide], the IC50 in data set [1] stood at 3000 nM; in data set [2] it was 140 nM.
The like results for `COC(=O)N1CC[C@@H](n2cc(C(=O)Nc3c(Cl)cncc3Cl)c(=O)c3cccnc32)C1` [Example 17, (R)-N-(3,5-dichloropyridin-4-yl)-1-(1-methoxycarbonylpyrrolidin-3-yl)-1,4-dihydro[1,8]naphthylidin-4-one-3-carboxamide] were, in that order, 10 nM and 4.8 nM.
The like results for `O=C(Nc1ccncc1)c1cn(C2CCCC2)c2ncccc2c1=O` [Example 149, N-(4-pyridyl)-1-cyclopentyl-1,4-dihydro[1,8]naphthylidin-4-one-3-carboxamide] were, in that order, 78 nM and 41 nM.
Regarding `CCn1cc(C(=O)NCCc2ccncc2)c(=O)c2ccc(C)nc21` [Comp. Ex., N-(2-(4-pyridyl)ethyl)-1-ethyl-7-methyl-1,8-naphthyridin-1,4-dihydro-4-one-3-carboxyamide, reference compound], the IC50 was 10000 nM in data set [1] and 5200 nM in data set [2].
